Measurements reported in patent publication US6548528B2, “Pesticidal pyrazoles and derivatives” (Rhone-Poulenc Agro, priority 1996, dated 2003).

Tested on: termites
Assay: Soil treatment at discrete locations around a house to be built, protection against termites (Example 1)
Type: in vivo
Settings: for attack of termite observed: 1 year after building the house, 0.01 g/m^2 of soil at future corners and wall crossings, treated area 5 m per 10 m of perimeter
Text: In an area where termites are passing or traveling, plans for a house are made. The plans are that the house will have a rectangular shape of 15 m×10 m with 4 rooms at the lower level.
Compound (A) is actually put on the soil at a rate of 0.01 g/m^2 of the soil at the location of the future corners of the house and at the crossing of the walls corresponding to each room according to the following scheme: [drawing 2]
The treated area represents 5 m per 10 m of perimeter.

| SMILES | attack of termite observed | holes in parts of the walls, % of the volume (one year after building the house, similar experiment to Example 1) |
| --- | --- | --- |
| N#Cc1nn(-c2c(Cl)cc(C(F)(F)F)cc2Cl)c(N)c1[S+]([O-])C(F)(F)F (stereo not drawn) [Compound (A), 5-amino 1-(2,6-dichloro 4-trifluoromethylphenyl) 4-trifluoromethylsulfinyl 3-cyanopyrazole] | no attack of termite | – |
| CCOP(=S)(OCC)Oc1nc(Cl)c(Cl)cc1Cl [chlorpyrifos] | strong attack of termites | more than 10% |
